Reference: ChEMBL document CHEMBL2321750, “Structural permutation of potent cytotoxin, polytheonamide B: discovery of cytotoxic Peptide with altered activity” (ACS Med Chem Lett, 2013)

Tested on: P388
Experiment: Cytotoxicity against mouse P388 cells assessed as cell viability after 92 hrs by XTT assay
Type: functional, cell-based
Conditions: P388, 92 h

| Structure (SMILES) | IC50 [nM] |
| --- | --- |
| CC[C@H](C)[C@H](NC(=O)[C@@H](CC(=O)NC)NC(=O)CNC(=O)[C@H](NC(=O)[C@@H](NC(=O)[C@@H](CC(=O)NC)NC(=O)[C@@H](NC(=O)[C@@H](CC(=O)NC)NC(=O)CNC(=O)CNC(=O)[C@H](C)NC(=O)[C@H](NC(=O)[C@H](CCC(=O)NC)NC(=O)[C@@H](CC(=O)NC)NC(=O)[C@@H](NC(=O)CNC(=O)[C@H](C)NC(=O)CNC(=O)[C@@H](NC(=O)[C@@H](CC(=O)NC)NC(=O)[C@H](C)NC(=O)[C@H](N)C(C)(C)C)C(C)(C)O)C(C)(C)C)C(C)(C)O)[C@@H](C)CC)C(C)(C)C)C(C)(C)O)C(=O)N[C@H](CC(=O)NC)C(=O)N[C@H](C(=O)N[C@H](CC(=O)NC)C(=O)N[C@@H](C)C(=O)N[C@H](CC(=O)NC)C(=O)N[C@H](C(=O)N[C@H](CO)C(=O)N[C@H](C(=O)N[C@H](CC(N)=O)C(=O)N[C@@H](Cc1cn(CCNS(=O)(=O)c2cccc3c(N(C)C)cccc23)nn1)C(=O)N[C@H](CC(N)=O)C(=O)N[C@@H](CCC(N)=O)C(=O)N[C@@H](C(=O)N[C@H](C(=O)O)[C@@H](C)O)[C@H](C)O)C(C)C)C(C)C)C(C)C | 81 |
| CC[C@H](C)[C@H](NC(=O)[C@@H](CC(=O)NC)NC(=O)CNC(=O)[C@H](NC(=O)[C@@H](NC(=O)[C@@H](CC(=O)NC)NC(=O)[C@@H](NC(=O)[C@@H](CC(=O)NC)NC(=O)CNC(=O)CNC(=O)[C@H](C)NC(=O)[C@H](NC(=O)[C@H](CCC(=O)NC)NC(=O)[C@@H](CC(=O)NC)NC(=O)[C@@H](NC(=O)CNC(=O)[C@H](C)NC(=O)CNC(=O)[C@@H](NC(=O)[C@@H](CC(=O)NC)NC(=O)[C@H](C)N)C(C)(C)O)C(C)(C)C)C(C)(C)O)[C@@H](C)CC)C(C)(C)C)C(C)(C)O)C(=O)N[C@H](CC(=O)NC)C(=O)N[C@H](C(=O)N[C@H](CC(=O)NC)C(=O)N[C@@H](C)C(=O)N[C@H](CC(=O)NC)C(=O)N[C@H](C(=O)N[C@H](CO)C(=O)N[C@H](C(=O)N[C@H](CC(N)=O)C(=O)N[C@@H](Cc1cn(CCNS(=O)(=O)c2cccc3c(N(C)C)cccc23)nn1)C(=O)N[C@H](CC(N)=O)C(=O)N[C@@H](CCC(N)=O)C(=O)N[C@@H](C(=O)N[C@H](C(=O)O)[C@@H](C)O)[C@H](C)O)C(C)C)C(C)C)C(C)C | 100 |
| CC[C@H](C)[C@H](NC(=O)[C@@H](CC(=O)NC)NC(=O)CNC(=O)[C@H](NC(=O)[C@@H](NC(=O)[C@@H](CC(=O)NC)NC(=O)[C@@H](NC(=O)[C@@H](CC(=O)NC)NC(=O)CNC(=O)CNC(=O)[C@H](C)NC(=O)[C@H](NC(=O)[C@H](CCC(=O)NC)NC(=O)[C@@H](CC(=O)NC)NC(=O)[C@@H](NC(=O)CNC(=O)[C@H](C)NC(=O)CNC(=O)[C@@H](NC(=O)[C@@H](CC(=O)NC)NC(=O)[C@H](C)NC(=O)[C@H](NC(=O)[C@H](C)NC(=O)CNC(=O)[C@H](C)N)C(C)(C)C)C(C)(C)O)C(C)(C)C)C(C)(C)O)[C@@H](C)CC)C(C)(C)C)C(C)(C)O)C(=O)N[C@H](CC(=O)NC)C(=O)N[C@H](C(=O)N[C@H](CC(=O)NC)C(=O)N[C@@H](C)C(=O)N[C@H](CC(=O)NC)C(=O)N[C@H](C(=O)N[C@H](CO)C(=O)N[C@H](C(=O)N[C@H](CC(N)=O)C(=O)N[C@@H](Cc1cn(CCNS(=O)(=O)c2cccc3c(N(C)C)cccc23)nn1)C(=O)N[C@H](CC(N)=O)C(=O)N[C@@H](CCC(N)=O)C(=O)N[C@@H](C(=O)N[C@H](C(=O)O)[C@@H](C)O)[C@H](C)O)C(C)C)C(C)C)C(C)C | > 420 |
| CC[C@H](C)[C@H](NC(=O)[C@@H](CC(=O)NC)NC(=O)CNC(=O)[C@H](NC(=O)[C@@H](NC(=O)[C@@H](CC(=O)NC)NC(=O)[C@@H](NC(=O)[C@@H](CC(=O)NC)NC(=O)CNC(=O)CNC(=O)[C@H](C)NC(=O)[C@H](NC(=O)[C@H](CCC(=O)NC)NC(=O)[C@@H](CC(=O)NC)NC(=O)[C@@H](N)C(C)(C)C)C(C)(C)O)[C@@H](C)CC)C(C)(C)C)C(C)(C)O)C(=O)N[C@H](CC(=O)NC)C(=O)N[C@H](C(=O)N[C@H](CC(=O)NC)C(=O)N[C@@H](C)C(=O)N[C@H](CC(=O)NC)C(=O)N[C@H](C(=O)N[C@H](CO)C(=O)N[C@H](C(=O)N[C@H](CC(N)=O)C(=O)N[C@@H](Cc1cn(CCNS(=O)(=O)c2cccc3c(N(C)C)cccc23)nn1)C(=O)N[C@H](CC(N)=O)C(=O)N[C@@H](CCC(N)=O)C(=O)N[C@@H](C(=O)N[C@H](C(=O)O)[C@@H](C)O)[C@H](C)O)C(C)C)C(C)C)C(C)C | 390 |
| CC[C@H](C)[C@H](NC(=O)[C@@H](CC(=O)NC)NC(=O)CNC(=O)[C@H](NC(=O)[C@@H](NC(=O)[C@@H](CC(=O)NC)NC(=O)[C@@H](NC(=O)[C@@H](CC(=O)NC)NC(=O)CNC(=O)CNC(=O)[C@H](C)NC(=O)[C@H](NC(=O)[C@H](CCC(=O)NC)NC(=O)[C@@H](CC(=O)NC)NC(=O)[C@@H](NC(=O)CNC(=O)[C@H](C)N)C(C)(C)C)C(C)(C)O)[C@@H](C)CC)C(C)(C)C)C(C)(C)O)C(=O)N[C@H](CC(=O)NC)C(=O)N[C@H](C(=O)N[C@H](CC(=O)NC)C(=O)N[C@@H](C)C(=O)N[C@H](CC(=O)NC)C(=O)N[C@H](C(=O)N[C@H](CO)C(=O)N[C@H](C(=O)N[C@H](CC(N)=O)C(=O)N[C@@H](Cc1cn(CCNS(=O)(=O)c2cccc3c(N(C)C)cccc23)nn1)C(=O)N[C@H](CC(N)=O)C(=O)N[C@@H](CCC(N)=O)C(=O)N[C@@H](C(=O)N[C@H](C(=O)O)[C@@H](C)O)[C@H](C)O)C(C)C)C(C)C)C(C)C | 190 |
| CC[C@H](C)[C@H](NC(=O)[C@@H](CC(=O)NC)NC(=O)CNC(=O)[C@H](NC(=O)[C@@H](NC(=O)[C@@H](CC(=O)NC)NC(=O)[C@@H](NC(=O)[C@@H](CC(=O)NC)NC(=O)CNC(=O)CNC(=O)[C@H](C)NC(=O)[C@H](NC(=O)[C@H](CCC(=O)NC)NC(=O)[C@@H](CC(=O)NC)NC(=O)[C@@H](NC(=O)CNC(=O)[C@H](C)NC(=O)CNC(=O)[C@@H](NC(=O)[C@H](N)CC(=O)NC)C(C)(C)O)C(C)(C)C)C(C)(C)O)[C@@H](C)CC)C(C)(C)C)C(C)(C)O)C(=O)N[C@H](CC(=O)NC)C(=O)N[C@H](C(=O)N[C@H](CC(=O)NC)C(=O)N[C@@H](C)C(=O)N[C@H](CC(=O)NC)C(=O)N[C@H](C(=O)N[C@H](CO)C(=O)N[C@H](C(=O)N[C@H](CC(N)=O)C(=O)N[C@@H](Cc1cn(CCNS(=O)(=O)c2cccc3c(N(C)C)cccc23)nn1)C(=O)N[C@H](CC(N)=O)C(=O)N[C@@H](CCC(N)=O)C(=O)N[C@@H](C(=O)N[C@H](C(=O)O)[C@@H](C)O)[C@H](C)O)C(C)C)C(C)C)C(C)C | > 420 |
| CC[C@H](C)[C@H](NC(=O)[C@@H](CC(=O)NC)NC(=O)CNC(=O)[C@H](NC(=O)[C@@H](NC(=O)[C@@H](CC(=O)NC)NC(=O)[C@@H](NC(=O)[C@@H](CC(=O)NC)NC(=O)CNC(=O)CNC(=O)[C@H](C)NC(=O)[C@H](NC(=O)[C@H](CCC(=O)NC)NC(=O)[C@@H](CC(=O)NC)NC(=O)[C@@H](NC(=O)CNC(=O)[C@H](C)NC(=O)CNC(=O)[C@@H](N)C(C)(C)O)C(C)(C)C)C(C)(C)O)[C@@H](C)CC)C(C)(C)C)C(C)(C)O)C(=O)N[C@H](CC(=O)NC)C(=O)N[C@H](C(=O)N[C@H](CC(=O)NC)C(=O)N[C@@H](C)C(=O)N[C@H](CC(=O)NC)C(=O)N[C@H](C(=O)N[C@H](CO)C(=O)N[C@H](C(=O)N[C@H](CC(N)=O)C(=O)N[C@@H](Cc1cn(CCNS(=O)(=O)c2cccc3c(N(C)C)cccc23)nn1)C(=O)N[C@H](CC(N)=O)C(=O)N[C@@H](CCC(N)=O)C(=O)N[C@@H](C(=O)N[C@H](C(=O)O)[C@@H](C)O)[C@H](C)O)C(C)C)C(C)C)C(C)C | 140 |
| CC[C@H](C)[C@H](NC(=O)[C@@H](CC(=O)NC)NC(=O)CNC(=O)[C@H](NC(=O)[C@@H](NC(=O)[C@@H](CC(=O)NC)NC(=O)[C@@H](NC(=O)[C@@H](CC(=O)NC)NC(=O)CNC(=O)CNC(=O)[C@H](C)NC(=O)[C@H](NC(=O)[C@H](CCC(=O)NC)NC(=O)[C@@H](CC(=O)NC)NC(=O)[C@@H](NC(=O)CN)C(C)(C)C)C(C)(C)O)[C@@H](C)CC)C(C)(C)C)C(C)(C)O)C(=O)N[C@H](CC(=O)NC)C(=O)N[C@H](C(=O)N[C@H](CC(=O)NC)C(=O)N[C@@H](C)C(=O)N[C@H](CC(=O)NC)C(=O)N[C@H](C(=O)N[C@H](CO)C(=O)N[C@H](C(=O)N[C@H](CC(N)=O)C(=O)N[C@@H](Cc1cn(CCNS(=O)(=O)c2cccc3c(N(C)C)cccc23)nn1)C(=O)N[C@H](CC(N)=O)C(=O)N[C@@H](CCC(N)=O)C(=O)N[C@@H](C(=O)N[C@H](C(=O)O)[C@@H](C)O)[C@H](C)O)C(C)C)C(C)C)C(C)C | > 410 |
| CC[C@H](C)[C@H](NC(=O)[C@@H](CC(=O)NC)NC(=O)CNC(=O)[C@H](NC(=O)[C@@H](NC(=O)[C@@H](CC(=O)NC)NC(=O)[C@@H](NC(=O)[C@@H](CC(=O)NC)NC(=O)CNC(=O)CNC(=O)[C@H](C)NC(=O)[C@H](NC(=O)[C@H](CCC(=O)NC)NC(=O)[C@H](N)CC(=O)NC)C(C)(C)O)[C@@H](C)CC)C(C)(C)C)C(C)(C)O)C(=O)N[C@H](CC(=O)NC)C(=O)N[C@H](C(=O)N[C@H](CC(=O)NC)C(=O)N[C@@H](C)C(=O)N[C@H](CC(=O)NC)C(=O)N[C@H](C(=O)N[C@H](CO)C(=O)N[C@H](C(=O)N[C@H](CC(N)=O)C(=O)N[C@@H](Cc1cn(CCNS(=O)(=O)c2cccc3c(N(C)C)cccc23)nn1)C(=O)N[C@H](CC(N)=O)C(=O)N[C@@H](CCC(N)=O)C(=O)N[C@@H](C(=O)N[C@H](C(=O)O)[C@@H](C)O)[C@H](C)O)C(C)C)C(C)C)C(C)C | > 250 |
| CC[C@H](C)[C@H](NC(=O)[C@@H](CC(=O)NC)NC(=O)CNC(=O)[C@H](NC(=O)[C@@H](NC(=O)[C@@H](CC(=O)NC)NC(=O)[C@@H](NC(=O)[C@@H](CC(=O)NC)NC(=O)CNC(=O)CNC(=O)[C@H](C)NC(=O)[C@H](NC(=O)[C@H](CCC(=O)NC)NC(=O)[C@@H](CC(=O)NC)NC(=O)[C@@H](NC(=O)CNC(=O)[C@H](C)NC(=O)CNC(=O)[C@@H](NC(=O)[C@@H](CC(=O)NC)NC(=O)[C@H](C)NC(=O)[C@H](NC(=O)[C@H](C)NC(=O)CN)C(C)(C)C)C(C)(C)O)C(C)(C)C)C(C)(C)O)[C@@H](C)CC)C(C)(C)C)C(C)(C)O)C(=O)N[C@H](CC(=O)NC)C(=O)N[C@H](C(=O)N[C@H](CC(=O)NC)C(=O)N[C@@H](C)C(=O)N[C@H](CC(=O)NC)C(=O)N[C@H](C(=O)N[C@H](CO)C(=O)N[C@H](C(=O)N[C@H](CC(N)=O)C(=O)N[C@@H](Cc1cn(CCNS(=O)(=O)c2cccc3c(N(C)C)cccc23)nn1)C(=O)N[C@H](CC(N)=O)C(=O)N[C@@H](CCC(N)=O)C(=O)N[C@@H](C(=O)N[C@H](C(=O)O)[C@@H](C)O)[C@H](C)O)C(C)C)C(C)C)C(C)C | > 420 |
